Target: T1, adenosine A2A receptor (Homo sapiens, UniProt P29274)
T1 construct: gene ADORA2A
Assay: radioligand displacement (agonist radioligand), single concentration […] in duplicate; […] of control remaining ([…] inhibition)
Assay type: binding

T1 sequence (P29274 whole entry): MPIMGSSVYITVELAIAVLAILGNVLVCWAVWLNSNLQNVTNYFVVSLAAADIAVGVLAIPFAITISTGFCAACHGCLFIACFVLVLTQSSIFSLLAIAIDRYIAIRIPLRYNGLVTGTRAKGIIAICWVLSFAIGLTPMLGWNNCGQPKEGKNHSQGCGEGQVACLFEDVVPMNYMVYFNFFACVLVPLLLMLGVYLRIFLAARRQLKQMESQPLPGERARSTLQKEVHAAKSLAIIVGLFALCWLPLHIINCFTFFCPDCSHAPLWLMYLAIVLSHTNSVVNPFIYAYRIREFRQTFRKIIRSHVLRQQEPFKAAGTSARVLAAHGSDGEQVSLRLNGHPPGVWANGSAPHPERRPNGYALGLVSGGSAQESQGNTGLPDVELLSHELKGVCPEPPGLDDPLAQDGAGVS

inhibition at 10 µM: 81%
SMILES: Cc1nn(Cc2cccc(C(=O)O)c2)c2nc(-c3ccncc3)[nH]c(=O)c12 [SAN4825]
